From ChEMBL document CHEMBL4673355, “Thiacalixarene based quaternary ammonium salts as promising antibacterial agents” (Bioorg Med Chem, 2021)
Values after ≈ are worked out from the molar mass of the structure shown. Values belong to the compound of their own block, whether it stands above or below them.

Legend:
Enterococcus faecalis [1] = test: Bactericidal activity against Enterococcus faecalis ATCC 29212; type: functional
Staphylococcus aureus [2] = test: Antibacterial activity against Staphylococcus aureus ATCC 29213 by CLSI broth microdilution method; type: functional
Enterococcus faecalis [3] = test: Antibacterial activity against Enterococcus faecalis ATCC 29212 by CLSI broth microdilution method; type: functional; settings: Enterococcus faecalis, ATCC 29212; read-out: MIC
Staphylococcus aureus [4] = test: Bactericidal activity against Staphylococcus aureus ATCC 29223; type: functional
Staphylococcus aureus [5] = test: Bactericidal activity against Staphylococcus aureus ATCC 29213; type: functional
Escherichia coli [6] = test: Antibacterial activity against Escherichia coli ATCC 25922 by CLSI broth microdilution method; type: functional
Pseudomonas aeruginosa [7] = test: Antibacterial activity against Pseudomonas aeruginosa ATCC 27853 by CLSI broth microdilution method; type: functional
Staphylococcus aureus [8] = test: Antibacterial activity against Staphylococcus aureus ATCC 29223 by CLSI broth microdilution method; type: functional
Escherichia coli [9] = test: Bactericidal activity against Escherichia coli ATCC 25922; type: functional
Klebsiella pneumoniae [10] = test: Antibacterial activity against Klebsiella pneumoniae ATCC 1813 assessed as reduction in bacterial growth incubated for 24 hrs by CLSI broth microdilution method; type: functional; settings: Klebsiella pneumoniae, ATCC 1813, 24 h, read-out: MIC
[11] = Selectivity index, ratio of CC50 for human HSF cells to MIC for Bacillus subtilis 168; type: toxicity; settings: HSF cells
Staphylococcus aureus [12] = test: Antibacterial activity against Staphylococcus aureus ATCC 29213 assessed as reduction in bacterial growth incubated for 24 hrs by CLSI broth microdilution method; type: functional; settings: Staphylococcus aureus, ATCC 29213, 24 h, read-out: MIC
Pseudomonas aeruginosa [13] = test: Antibacterial activity against Pseudomonas aeruginosa ATCC 27853 assessed as reduction in bacterial growth incubated for 24 hrs by CLSI broth microdilution method; type: functional; settings: Pseudomonas aeruginosa, ATCC 27853, 24 h, read-out: MIC
[14] = Selectivity index, ratio of CC50 for human HSF cells to MIC for Staphylococcus aureus ATCC 29213; type: toxicity; settings: HSF cells
Escherichia coli [15] = test: Antibacterial activity against Escherichia coli ATCC 25922 assessed as reduction in bacterial growth incubated for 24 hrs by CLSI broth microdilution method; type: functional; settings: Escherichia coli, ATCC 25922, 24 h, read-out: MIC
Bacillus subtilis [16] = test: Antibacterial activity against Bacillus subtilis 168 assessed as reduction in bacterial growth incubated for 24 hrs by CLSI broth microdilution method; type: functional; settings: Bacillus subtilis, 168, 24 h, read-out: MIC
[17] = Cytotoxicity against human HSF cells assessed as reduction in cell viability incubated for 72 hrs by MTT assay; type: cell-based, HSF (VGS)
[18] = Selectivity index, ratio of CC50 for human HSF cells to MIC for Staphylococcus epidermidis; type: toxicity; settings: HSF cells
[19] = test system: Staphylococcus epidermidis; test: Antibacterial activity against Staphylococcus epidermidis assessed as reduction in bacterial growth incubated for 24 hrs by CLSI broth microdilution method; type: functional; settings: Staphylococcus epidermidis, read-out: MIC
[20] = Selectivity index, ratio of CC50 for human HSF cells to MIC for Escherichia coli ATCC 25922; type: toxicity
[21] = Selectivity index, ratio of CC50 for human HSF cells to MIC for Klebsiella pneumoniae ATCC 1813; type: toxicity; settings: HSF cells
[22] = Selectivity index, ratio of CC50 for human HSF cells to MIC for Pseudomonas aeruginosa ATCC 27853; type: toxicity; settings: HSF cells
Klebsiella sp. [23] = test: Antibacterial activity against […] resistant Klebsiella sp. clinical isolate 12 assessed as reduction in bacterial growth incubated for 24 hrs by CLSI broth microdilution method; type: functional
Staphylococcus aureus [24] = test: Antibacterial activity against methicillin- resistant Staphylococcus aureus 967 clinical isolate assessed as reduction in bacterial growth incubated for 24 hrs by CLSI broth microdilution method; type: functional
Escherichia coli [25] = test: Bactericidal activity against Escherichia coli ATCC 25922 assessed as reduction in bacterial growth incubated for 24 hrs followed by replating on MH broth and further incubated for 24 hrs by CLSI broth microdilution method; type: functional
[26] = test system: Staphylococcus epidermidis; test: Bactericidal activity against Staphylococcus epidermidis assessed as reduction in bacterial growth incubated for 24 hrs followed by replating on MH broth and further incubated for 24 hrs by CLSI broth microdilution method; type: functional; settings: Staphylococcus epidermidis, read-out: MBC
Klebsiella pneumoniae [27] = test: Bactericidal activity against Klebsiella pneumoniae ATCC 1813 assessed as reduction in bacterial growth incubated for 24 hrs followed by replating on MH broth and further incubated for 24 hrs by CLSI broth microdilution method; type: functional
Klebsiella sp. [28] = test: Antibacterial activity against […] resistant Klebsiella sp. clinical isolate 11 assessed as reduction in bacterial growth incubated for 24 hrs by CLSI broth microdilution method; type: functional
[29] = Antibacterial activity against […] resistant Moraxella sp.764 clinical isolate assessed as reduction in bacterial growth incubated for 24 hrs by CLSI broth microdilution method; type: functional; settings: Moraxella catarrhalis
Pseudomonas aeruginosa [30] = test: Bactericidal activity against Pseudomonas aeruginosa ATCC 27853 assessed as reduction in bacterial growth incubated for 24 hrs followed by replating on MH broth and further incubated for 24 hrs by CLSI broth microdilution method; type: functional
Acinetobacter [31] = test: Antibacterial activity against […] resistant Acinetobacter spp. clinical isolate 5 assessed as reduction in bacterial growth incubated for 24 hrs by CLSI broth microdilution method; type: functional
[32] = test system: Staphylococcus intermedius; test: Antibacterial activity against methicillin- resistant Staphylococcus intermedius 1143 clinical isolate assessed as reduction in bacterial growth incubated for 24 hrs by CLSI broth microdilution method; type: functional
Staphylococcus aureus [33] = test: Bactericidal activity against Staphylococcus aureus ATCC 29213 assessed as reduction in bacterial growth incubated for 24 hrs followed by replating on MH broth and further incubated for 24 hrs by CLSI broth microdilution method; type: functional; settings: Staphylococcus aureus, ATCC 29213; time 48 hrs; read-out: MBC
Staphylococcus aureus [34] = test: Antibacterial activity against methicillin- resistant Staphylococcus aureus 25 clinical isolate assessed as reduction in bacterial growth incubated for 24 hrs by CLSI broth microdilution method; type: functional
Proteus sp. = test: Antibacterial activity against […] resistant Proteus sp. clinical isolate 17 assessed as reduction in bacterial growth incubated for 24 hrs by CLSI broth microdilution method; type: functional; settings: Proteus sp. (in: enterobacteria)
Staphylococcus aureus [35] = test: Antibacterial activity against methicillin- resistant Staphylococcus aureus 983 clinical isolate assessed as reduction in bacterial growth incubated for 24 hrs by CLSI broth microdilution method; type: functional
Acinetobacter [36] = test: Antibacterial activity against […] resistant Acinetobacter spp. clinical isolate 3 assessed as reduction in bacterial growth incubated for 24 hrs by CLSI broth microdilution method; type: functional
Staphylococcus aureus [37] = test: Antibacterial activity against methicillin- resistant Staphylococcus aureus 2020 clinical isolate assessed as reduction in bacterial growth incubated for 24 hrs by CLSI broth microdilution method; type: functional
[38] = Antibacterial activity against […] resistant Moraxella sp.829 clinical isolate assessed as reduction in bacterial growth incubated for 24 hrs by CLSI broth microdilution method; type: functional; settings: Moraxella catarrhalis
Bacillus subtilis [39] = test: Bactericidal activity against Bacillus subtilis 168 assessed as reduction in bacterial growth incubated for 24 hrs followed by replating on MH broth and further incubated for 24 hrs by CLSI broth microdilution method; type: functional; settings: Bacillus subtilis, 168, 24 h
Acinetobacter [40] = test: Antibacterial activity against […] resistant Acinetobacter spp. clinical isolate 1 assessed as reduction in bacterial growth incubated for 24 hrs by CLSI broth microdilution method; type: functional
Pseudomonas = test: Antibacterial activity against methicillin- resistant Pseudomonas spp. clinical isolate 6 assessed as reduction in bacterial growth incubated for 24 hrs by CLSI broth microdilution method; type: functional
[41] = test system: Staphylococcus haemolyticus; test: Antibacterial activity against methicillin- resistant Staphylococcus haemolyticus 837 assessed as reduction in bacterial growth incubated for 24 hrs by CLSI broth microdilution method; type: functional
[42] = Antibacterial activity against […] resistant Moraxella sp.765 clinical isolate assessed as reduction in bacterial growth incubated for 24 hrs by CLSI broth microdilution method; type: functional; settings: Moraxella catarrhalis

- MIC (Staphylococcus aureus [2]): 8 µg/mL
- MIC (Enterococcus faecalis [3]): 32 µg/mL
- MIC (Escherichia coli [6]): 4 µg/mL
- MIC (Pseudomonas aeruginosa [7]): 32 µg/mL
- MIC (Staphylococcus aureus [8]): 8 µg/mL
SMILES: N=C(N)NCCc1cc2c(O)c(c1)Cc1cc(CCNC(=N)N)cc(c1O)Cc1cc(CCNC(=N)N)cc(c1O)Cc1cc(CCNC(=N)N)cc(c1O)C2.O=C(O)C(F)(F)F.O=C(O)C(F)(F)F.O=C(O)C(F)(F)F.O=C(O)C(F)(F)F
- MBC (Enterococcus faecalis [1]): > 256 µg/mL
- MBC (Staphylococcus aureus [4]): 256 µg/mL
- MBC (Staphylococcus aureus [5]): 256 µg/mL
- MBC (Escherichia coli [9]): 256 µg/mL

SMILES: [H]/N=C(\N/C(=N/[H])NCCCCCCNC(=N)NC(=N)Nc1ccc(Cl)cc1)Nc1ccc(Cl)cc1 [CHLORHEXIDINE]
- MIC (Klebsiella pneumoniae [10]): 2 µg/mL (≈ 3.96 µM)
- selectivity ratio [11]: 2.74
- MIC (Staphylococcus aureus [12]): 2 µg/mL (≈ 3.96 µM)
- MIC (Pseudomonas aeruginosa [13]): 4 µg/mL (≈ 7.91 µM)
- selectivity ratio [14]: 2.74
- MIC (Escherichia coli [15]): 1 µg/mL (≈ 1.98 µM)
- MIC (Bacillus subtilis [16]): 2 µg/mL (≈ 3.96 µM)
- CC50 at 72 h [17]: 5.48 µg/mL (≈ 10.8 µM)
- selectivity ratio [18]: 5.48
- MIC [19]: 1 µg/mL (≈ 1.98 µM)
- selectivity ratio [20]: 5.48
- selectivity ratio [21]: 2.74
- selectivity ratio [22]: 1.37

SMILES: CCCCCCCCCCCCCC(=O)NCCC[N+](C)(C)Cc1ccccc1.[Cl-] [MIRAMISTIN]
- MIC (Klebsiella pneumoniae [10]): 64 µg/mL
- selectivity ratio [11]: 1.2
- MIC (Klebsiella sp. [23]): > 64 µg/mL
- MIC (Staphylococcus aureus [24]): 16 µg/mL
- MBC (Escherichia coli [25]): 64 µg/mL
- MBC [26]: 32 µg/mL
- MIC (Staphylococcus aureus [12]): 16 µg/mL
- MIC (Pseudomonas aeruginosa [13]): 64 µg/mL
- MBC (Klebsiella pneumoniae [27]): 64 µg/mL
- MIC (Klebsiella sp. [28]): 64 µg/mL
- selectivity ratio [14]: 0.6
- MIC [29]: 64 µg/mL
- MIC (Escherichia coli [15]): 64 µg/mL
- MIC (Bacillus subtilis [16]): 8 µg/mL
- MBC (Pseudomonas aeruginosa [30]): 64 µg/mL
- MIC (Acinetobacter [31]): > 64 µg/mL
- MIC [32]: 8 µg/mL
- MBC (Staphylococcus aureus [33]): 32 µg/mL
- MIC (Staphylococcus aureus [34]): 0.5 µg/mL
- MIC (Proteus sp.): > 64 µg/mL
- CC50 at 72 h [17]: 9.4 µg/mL
- selectivity ratio [18]: 2.4
- MIC (Staphylococcus aureus [35]): 4 µg/mL
- MIC (Acinetobacter [36]): 64 µg/mL
- MIC (Staphylococcus aureus [37]): 8 µg/mL
- MIC [38]: 32 µg/mL
- MIC [19]: 4 µg/mL
- MBC (Bacillus subtilis [39]): 64 µg/mL
- selectivity ratio [20]: 0.15
- MIC (Acinetobacter [40]): 64 µg/mL
- MIC (Pseudomonas): > 64 µg/mL
- MIC [41]: 64 µg/mL
- selectivity ratio [21]: 0.15
- MIC [42]: 64 µg/mL
- selectivity ratio [22]: 0.15
